Key:
[1] = system: H1 human embryonic stem cells; test: Dose ranging of compounds with activin A or GDF-8, SOX17 and cell number (Example 15); format: cell-based; details: for SOX17 expression in combination with GDF-8 / cell numbers at the end of assay in combination with GDF-8: 78 nM to 10 μM compound with 100 ng/ml GDF-8; for SOX17 expression with activin A treatment: 78 nM to 10 μM compound with 100 ng/ml activin A, one or three days of compound
Experimental: Stock cultures of human embryonic stem cells (H1 human embryonic stem cell line) were maintained in an undifferentiated, pluripotent state on reduced growth factor […]™ (BD Biosciences; Cat #356231)-coated dishes in MEF conditioned medium supplemented with 8 ng/ml bFGF (PeproTech Inc.; Cat #100-18B) with passage on average every four days. Passage was performed, by exposing cell cultures to a solution of 1 mg/ml dispase (Invitrogen; Cat #17105-041) for 5 to 7 minutes at 37° C. followed by rinsing the monolayer with MEF conditioned culture medium and gentle scraping to recover cell clusters. Clusters were centrifuged at low speed to collect a cell pellet and remove residual dispase. Cell clusters were split at a 1:3 or 1:4 ratio for routine maintenance culture or a 1:1 ratio for immediate assay. All human embryonic stem cell lines were maintained at passage numbers less than 50 and routinely evaluated for normal karyotype and absence of mycoplasma.
Cell clusters were evenly resuspended in MEF conditioned medium supplemented with 8 ng/ml bFGF and seeded onto reduced growth factor […]™-coated 96-well Packard VIEWPLATES (PerkinElmer; Cat #6005182) in volumes of 0.1 ml/well. Daily feeding was conducted by aspirating spent culture medium from each well and replacing with an equal volume of fresh medium. Plates were maintained at 37° C., 5% CO2 throughout the duration of assay.
Assay was initiated by aspirating the culture medium from each well and adding back aliquots (100 μl) of test medium. Test conditions were performed in quadruplicate over a total four-day assay period, feeding daily by aspirating and replacing the medium from each well with fresh test medium. […] Test compounds in this assay included six of the compounds of the present invention: Compound 181, Compound 180, Compound 19, Compound 202, Compound 40, and Compound 34, and a commercial GSK31 inhibitor BIO (EMD Chemicals, Inc.; Cat #361550). On the first day of assay, wells were treated with various control or experimental conditions. Control conditions, with final assay concentrations as indicated, were as follows: 1) growth medium alone; 2) 20 ng/ml Wnt3a only R&D Systems; Cat #1324-WN/CF); 3) 100 ng/ml activin A (PeproTech; Cat #120-14); 4) 100 ng/mlactivin A and 20 ng/ml Wnt3a; 5) 100 ng/ml GDF-8 (R&D Systems, Cat #788-G8); 6) 100 ng/ml GDF-8 and 20 ng/ml Wnt3a. Test compounds were diluted two-fold in series to yield a concentration range from 78 nM to 10 μM in the final assay. Experimental test samples combined each individual compound dilution series with 100 ng/ml activin A or 100 ng/ml GDF-8, both treatment sets in the absence of Wnt3a. On the second and third day of assay, some wells continued to be treated with 20 ng/ml Wnt3a or diluted test compound in combination with either activin A or GDF-8. In other wells, activin A or GDF-8 treatment continued on the second and third day of assay, but Wnt3a or diluted test compound was removed.
At the conclusion of culture, assay plates were washed once with PBS (Invitrogen; Cat #14190), fixed with 4% paraformaldehyde (Alexis Biochemical; Cat #ALX-350-011) at room temperature for 20 minutes, then washed three times with PBS and permeabilized with 0.5% Triton X-100 (Sigma; Cat #T8760-2) for 20 minutes at room temperature. Cells were washed again three times with PBS and blocked with 4% chicken serum (Invitrogen; Cat #16110082) in PBS for 30 minutes at room temperature. Primary antibody (goat anti-human SOX17; R&D Systems; Cat #AF1924) was diluted 1:100 in 4% chicken serum and added to each well for two hours at room temperature. After washing three times with PBS, Alexa Fluor 488 conjugated secondary antibody (chicken anti-goat IgG; Invitrogen; Cat #A21467) diluted 1:200 in PBS was added to each well. To counterstain nuclei, 5 μg/ml Hoechst 33342 (Invitrogen; Cat #H3570) was added for fifteen minutes at room temperature. Plates were washed once with PBS and left in 100 μl/well PBS for imaging. […]

[2] = system: H1 human embryonic stem cells; test: Step-wise differentiation, FACS for CXCR4 after step 1 (Example 12); format: cell-based; details: compared to activin A and Wnt3a
Experimental: The assay was initiated by aspirating the culture medium from each well and adding back an aliquot (0.5 ml) of test medium. Test conditions for the first step of differentiation were conducted over a three-day period, feeding daily by aspirating and replacing the medium from each well with fresh test medium. On the first day of assay, 100 ng/ml activin A (PeproTech; Cat #120-14) or 200 ng/ml GDF-8 (R&D Systems, Cat #788-G8) was added to respective assay wells where each growth factor was diluted into RPMI-1640 medium (Invitrogen; Cat #22400) with 1% Albumin Bovine Fraction V, Fatty Acid Free (FAF BSA) (MP Biomedicals, Inc; Cat 152401), 1% Probumin (Millipore; Cat #81-068-3) and 20 ng/ml Wnt3a (R&D Systems; Cat #1324-WN/CF). On the second day of assay, 100 ng/ml activin A or 200 ng/ml GDF-8 was diluted into RPMI-1640 medium supplemented with 2% FAF BSA without Wnt3a. In some test samples using GDF-8, Wnt3a was replaced with a either Compound 34 or Compound 56 at a concentration of 2.5 μM, and either Compound 34 or Compound 56 was added daily during all three days of definitive endoderm differentiation. At the conclusion of the first step of differentiation, cells from some wells were harvested for flow cytometry analysis to evaluate levels of CXCR4, a marker of definitive endoderm formation. Additional wells were harvested for RT-PCR analysis to measure other markers of differentiation.
Cells for FACS analysis were blocked in a 1:5 solution of 0.5% human gamma-globulin (Sigma; Cat#G-4386) in PBS (Invitrogen; Cat #14040-133): BD FACS staining buffer-BSA (BD; Cat #554657) for 15 minutes at 4° C. Cells were then stained with antibodies for CD9 PE (BD; Cat #555372), CD99 PE (Caltag; Cat #MHCD9904) and CXCR4 APC(R&D Systems; Cat#FAB 173A) for 30 minutes at 4° C. After a series of washes in BD FACS staining buffer, the cells were stained for viability with 7-AAD (BD; Cat #559925) and run on a BD FACSAiray. A mouse IgG1K Isotype control antibody for both PE and APC was used to gate percent positive cells.

[3] = 200 ng/ml GDF-8 with 2.5 μM compound all three days

Molecule | SOX17 expression in combination with GDF-8 [1] | cell numbers at the end of assay in combination with GDF-8 [1] | SOX17 expression with activin A treatment [1] | percentage of CXCR4 positive cells after step 1 [2, 3] | percentage of CXCR4 positive cells after step 1 ([2]; 200 ng/ml GDF-8 with Wnt3a) | SOX17 expression, control treatments ([1]; 100 ng/ml activin A versus 100 ng/ml GDF-8, alone or with Wnt3a)
C=CCN1CC(=O)NCCCc2cncc(c2)-c2ncnc(n2)Nc2cccc(c2)C1 [Compound 40, 14-Prop-2-en-1-yl-3,5,7,14,17,23,27-heptaazatetracyclo[19.3.1.1˜2.6˜0.1˜8,12˜]heptacosa-1(25), 2(27), 3,5,8(26), 9,11,21,23-nonaen-16-one] | significantly improved SOX17 expression | enhanced cell numbers | did not enhance SOX 17 expression | – | – | –
O=C1CCN2CCN(CC2)Cc2cc(Cl)cc(c2)Nc2ncnc(n2)-c2cncc(c2)CCCN1 [Compound 34, 5-Chloro-1,8,10,12,16,22,26,32-octaazapentacyclo[24.2.2.1˜3.7˜0.1˜9,13˜0.1˜14.18˜]tritriaconta-3(33), 4,6,9(32), 10,12,14(31), 15,17-nonaen-23-one] | significantly improved SOX17 expression | enhanced cell numbers | did not enhance SOX 17 expression | equivalent or higher percentage of CXCR4 positive cells | – | –
CN1CCC(=O)NCCCc2cncc(c2)-c2ncnc(n2)Nc2cccc(c2)C1 [Compound 19, 14-Methyl-3,5,7,14,18,24,28-heptaazatetracyclo[20.3.1.1˜2,6˜0.1˜8,12˜]octacosa-1(26), 2(28), 3,5,8(27), 9,11,22,24-nonaen-17-one] | significantly improved SOX17 expression | enhanced cell numbers | did not enhance SOX 17 expression | – | – | –
GDF-8: growth factor GDF-8, also known as myostatin, member of the TGF-β family | – | – | – | – | equivalent percentage of CXCR4 positive cells | –
Activin A: recombinant human activin A (PeproTech), TGF-beta family member | – | – | – | – | – | significantly higher SOX17 expression
Cc1c[nH]c(-c2cnc(NCCNc3ccc(C#N)cn3)nc2-c2ccc(Cl)cc2Cl)n1 [Compound 56, 6-[(2-{[4-(2,4-Dichlorophenyl)-5-(4-methyl-1H-imidazol-2-yl)pyrimidin-2-yl]amino}ethyl)amino]pyridine-3-carbonitrile] | – | – | – | equivalent or higher percentage of CXCR4 positive cells | – | –

— US9593305B2, “Differentiation of pluripotent stem cells” (Janssen Biotech, Inc., priority 2008, dated 2017)
